Measurements from ChEMBL document CHEMBL3259609, “Optimization of pancreatic lipase inhibition by Cudrania tricuspidata fruits using response surface methodology” (Bioorg Med Chem Lett, 2014).

What was measured:
[1] = biological target: T1, Pancreatic triacylglycerol lipase (Sus scrofa) (UniProt P00591); details: 10 uM
T1 sequence (whole entry): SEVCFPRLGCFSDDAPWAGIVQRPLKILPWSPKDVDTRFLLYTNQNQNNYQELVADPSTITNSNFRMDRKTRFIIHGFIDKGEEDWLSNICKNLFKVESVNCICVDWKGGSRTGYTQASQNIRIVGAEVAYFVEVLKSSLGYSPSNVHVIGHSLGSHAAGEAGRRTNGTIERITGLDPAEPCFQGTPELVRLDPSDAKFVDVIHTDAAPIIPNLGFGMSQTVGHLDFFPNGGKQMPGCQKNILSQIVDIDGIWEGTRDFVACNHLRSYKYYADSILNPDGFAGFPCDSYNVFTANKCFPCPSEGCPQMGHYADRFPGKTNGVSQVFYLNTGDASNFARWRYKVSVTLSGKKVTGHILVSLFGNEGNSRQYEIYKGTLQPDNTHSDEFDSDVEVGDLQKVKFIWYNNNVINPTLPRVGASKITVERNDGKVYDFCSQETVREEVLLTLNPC
Description: Inhibition of porcine pancreatic lipase assessed as hydrolysis of p-NPB to p-nitrophenol at 10 uM by microplate reader relative to control

[2] = biological target: T2, Pancreatic triacylglycerol lipase (Sus scrofa, UniProt P00591); assay: Inhibition of porcine pancreatic lipase assessed as hydrolysis of p-NPB to p-nitrophenol by microplate reader
T2 sequence (P00591 whole entry): T1 sequence (whole entry)

inhibition [1]: 72.2% | IC50 [2]: 65 µM
Compound: CC(C)=CCc1c(O)c(CC=C(C)C)c2occ(-c3ccc(O)cc3)c(=O)c2c1O
